Read-outs that look alike come from different tables or passages of the source.
Key:
[1] = tested on: CAL-148 cells; experiment: Resazurin-based cell viability assay, monotherapy drug screen; set-up: species or system human; AUC: unit not given beside the values; conditions: CAL-148; for AUC: area under the dose response curve, 24 h; for GRmax: drug efficacy at highest tested dose (<0 cytotoxic, 0 cytostatic, >0 partial growth inhibition)
[2] = tested on: BT-549 cells; experiment: as above; set-up: species or system human; AUC: scale not given here; conditions: BT-549; for AUC: area under the dose response curve, 24 h; for GRmax: drug efficacy at highest tested dose (<0 cytotoxic, 0 cytostatic, >0 partial growth inhibition)
Procedure, shortened: (§1)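 Cells were seeded at the highest density (tested 1000-16000 cells/well) giving linear growth between days 1 and 3, keeping them in exponential phase over the ~52 h experiment. Viability was read after 4 h at 37 °C with 0.2 mg/ml resazurin added at 10% of medium volume; ex 560/em 615 nm.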

[3] = tested on: HCC1806 cells; experiment: as above; set-up: species or system human; AUC: scale not given here; conditions: HCC1806; for AUC: area under the dose response curve, 24 h; for GRmax: drug efficacy at highest tested dose (<0 cytotoxic, 0 cytostatic, >0 partial growth inhibition)
Procedure, shortened: as §1

[4] = tested on: HCC38 cells; experiment: as above; set-up: species or system human; AUC: scale not given here; conditions: HCC38; for AUC: area under the dose response curve, 24 h; for GRmax: drug efficacy at highest tested dose (<0 cytotoxic, 0 cytostatic, >0 partial growth inhibition)
Procedure, shortened: as §1

[5] = tested on: HCC70 cells; experiment: as above; set-up: species or system human; AUC: scale not given here; conditions: HCC70; for AUC: area under the dose response curve, 24 h; for GRmax: drug efficacy at highest tested dose (<0 cytotoxic, 0 cytostatic, >0 partial growth inhibition)
Procedure, shortened: as §1

[6] = tested on: MCF-10A cells; experiment: as above; set-up: species or system human; AUC: scale not given here; conditions: for AUC: area under the dose response curve, 24 h
Procedure, shortened: as §1

[7] = tested on: MCF-7 cells; experiment: as above; set-up: species or system human; AUC: scale not given here; conditions: MCF-7; for AUC: area under the dose response curve, 24 h; for GRmax: drug efficacy at highest tested dose (<0 cytotoxic, 0 cytostatic, >0 partial growth inhibition)
Procedure, shortened: as §1

[8] = tested on: MDA-MB-468 cells; experiment: as above; set-up: species or system human; AUC: scale not given here; conditions: MDA-MB-468; for AUC: area under the dose response curve, 24 h
Procedure, shortened: as §1

[9] = tested on: eight TNBC cell lines (BT-549, CAL-148, HCC1806, HCC38, HCC70, MDA-MB-436, MDA-MB-453, MDA-MB-468); experiment: Monotherapy drug screen, mean across the TNBC cell lines; conditions: for cytotoxic effect at the highest dose / area under the dose response curve (AUC), mean ± SD: TNBC cell lines; for cytotoxic effect at the highest dose: by GRmax; for IC50: read-out: GR50 (mean ± SD)
Procedure, shortened: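 Cells seeded at 4.0 × 10^3–7.5 × 10^3/well, grown 24 h, then drug-treated 24 h with matched solvent-vehicle controls per concentration; resazurin absorbance read-out, viability normalised to vehicle after background subtraction, t = 0 untreated cells for GR. AUC, IC50, GR50, GRmax via GRmetrics; combinations predicted by IDACombo, synergy scored with SynergyFinder.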

[10] = Homo sapiens, 24 h drug treatment, read-out: IC50
[11] = Homo sapiens, growth rate inhibition concentration at GR(c) = 0.5, 24 h, read-out: GR50 (the source's name)
[12] = Homo sapiens, MCF7, growth rate inhibition concentration at GR(c) = 0.5, 24 h, read-out: GR50 (the source's name)
[13] = growth rate inhibition concentration at GR(c) = 0.5, 24 h, read-out: GR50 (the source's name)
[14] = 24 h drug treatment, read-out: IC50
[15] = drug efficacy at highest tested dose (<0 cytotoxic, 0 cytostatic, >0 partial growth inhibition)

## COc1cccc2c1C(=O)c1c(O)c3c(c(O)c1C2=O)C[C@@](O)(C(=O)CO)C[C@@H]3O[C@H]1C[C@H](N)[C@@H](O)[C@H](C)O1 [Epirubicin]
[1]
  AUC: 0.73
  GRmax: 0.14
[1]; [10]
  IC50: 200 nM
[1]; [11]
  IC50: 110 nM
[2]
  AUC: 0.88
  GRmax: 0.34
[2]; [10]
  IC50: 4600 nM
[2]; [11]
  IC50: 4300 nM
[3]
  AUC: 0.86
  GRmax: 0.45
[3]; [11]
  IC50: 6200 nM
[4]
  AUC: 0.81
  GRmax: −0.03
[4]; [10]
  IC50: 2300 nM
[4]; [11]
  IC50: 690 nM
[5]
  AUC: 0.83
  GRmax: −0.49
[5]; [10]
  IC50: 1600 nM
[5]; [11]
  IC50: 1000 nM
[6]; [10]
  IC50: 690 nM
[6]; [11]
  IC50: 690 nM
[6]
  AUC: 0.69
[7]; Homo sapiens, MCF7, 24 h drug treatment, read-out: IC50
  IC50: 1500 nM
[7]; [12]
  IC50: 1100 nM
[7]
  AUC: 0.89
  GRmax: 0.42
[8]; [10]
  IC50: 2200 nM
[8]; [11]
  IC50: 960 nM
[8]
  AUC: 0.80
[9]
  cytotoxic effect at the highest dose: lowest cytotoxic effects

## CC[C@H](C)[C@H](NC(=O)[C@H]([C@@H](C)CC)N(C)C(C)=O)C(=O)N[C@H](C(=O)N[C@@H](CC(C)C)C(=O)[C@@]1(C)CO1)[C@@H](C)O [Epoxomicin]
[1]
  AUC: 0.78
  GRmax: 0.11
[1]; [13]
  IC50: 770 nM
[2]
  AUC: 0.73
  GRmax: 0.38
[2]; [13]
  IC50: 130 nM
[3]; [14]
  IC50: 470 nM
[3]
  AUC: 0.73
  GRmax: 0.34
[3]; [13]
  IC50: 290 nM
[4]; [14]
  IC50: 54 nM
[4]
  AUC: 0.47
  GRmax: −0.74
[4]; [13]
  IC50: 44 nM
[5]; [14]
  IC50: 980 nM
[5]
  AUC: 0.72
  GRmax: −0.52
[5]; [13]
  IC50: 140 nM
[6]; [14]
  IC50: 88 nM
[6]
  AUC: 0.58
[6]; [15]
  GRmax: −0.05
[6]; [13]
  IC50: 95 nM
[7]; [14]
  IC50: 1200 nM
[7]
  AUC: 0.74
  GRmax: 0.42
[7]; [13]
  IC50: 75 nM
[8]; [14]
  IC50: 110 nM
[8]
  AUC: 0.65
[8]; [15]
  GRmax: 0.01
[8]; [13]
  IC50: 51 nM
[9]; 24 h
  area under the dose response curve (AUC), mean ± SD: 0.69 ± 0.10
[9]
  cytotoxic effect at the highest dose: lowest cytotoxic effects
[9]; across the TNBC cell lines, 24 h drug treatment
  IC50: 220 ± 230 nM

## CC(C)C[C@H](NC(=O)CNC(=O)c1cc(Cl)ccc1Cl)B(O)O [MLN 2238, MLN-2238]
[1]
  AUC: 0.83
  GRmax: 0.18
[1]; [11]
  IC50: 270 nM
[2]
  AUC: 0.75
  GRmax: 0.40
[2]; [11]
  IC50: 140 nM
[3]
  AUC: 0.75
  GRmax: 0.39
[3]; [10]
  IC50: 3000 nM
[3]; [11]
  IC50: 3300 nM
[4]
  AUC: 0.59
  GRmax: −0.99
[4]; [10]
  IC50: 110 nM
[4]; [11]
  IC50: 71 nM
[5]
  AUC: 0.78
  GRmax: −0.36
[5]; [10]
  IC50: 2700 nM
[5]; [11]
  IC50: 740 nM
[6]; [10]
  IC50: 410 nM
[6]; [11]
  IC50: 76 nM
[6]
  AUC: 0.72
[7]; [12]
  IC50: 340 nM
[7]
  AUC: 0.87
  GRmax: −0.29
[8]; [10]
  IC50: 240 nM
[8]; [11]
  IC50: 55 nM
[8]
  AUC: 0.67
[9]; Homo sapiens, 24 h
  IC50: 680 ± 1000 nM
[9]; 24 h
  area under the dose response curve (AUC), mean ± SD: 0.76 ± 0.10

## CC(C)C[C@H](NC(=O)CNC(=O)c1cc(Cl)ccc1Cl)B1OC(=O)C(CC(=O)O)(CC(=O)O)O1 [MLN 9708, MLN-9708]
[1]
  AUC: 0.88
  GRmax: 0.40
[1]; [11]
  IC50: 500 nM
[2]
  AUC: 0.80
  GRmax: 0.43
[2]; [11]
  IC50: 840 nM
[3]
  AUC: 0.79
  GRmax: 0.47
[3]; [11]
  IC50: 4300 nM
[4]
  AUC: 0.59
  GRmax: −0.99
[4]; [10]
  IC50: 130 nM
[4]; [11]
  IC50: 69 nM
[5]
  AUC: 0.82
  GRmax: −0.34
[5]; [10]
  IC50: 4800 nM
[5]; [11]
  IC50: 1200 nM
[6]; [10]
  IC50: 380 nM
[6]; [11]
  IC50: 70 nM
[6]
  AUC: 0.72
[7]; [12]
  IC50: 270 nM
[7]
  AUC: 0.87
  GRmax: −0.48
[8]; [10]
  IC50: 800 nM
[8]; [11]
  IC50: 100 nM
[8]
  AUC: 0.72
[9]; 24 h
  area under the dose response curve (AUC), mean ± SD: 0.79 ± 0.10
